# Data reported in patent US20160251342A1, “ALDEHYDE DERIVATIVE OF SUBSTITUTED OXAZOLIDINONES” (WANBURY LTD., priority 2012, published 2016).
# Columns and labels:
# [1] = Intravenous and oral excretion profile in Wistar rats; type: in vivo; details: after i.v. administration, first measurement point
# Method: On the day before administration of the substance, a catheter for obtaining blood is implanted in the jugular vein of the experimental animals (male Wistar rats, body weight 200-250 g) under Isoflurane. anesthesia.
# Urine and faeces are taken collected from metabolic cages over the course of 144 h after administration of the substance. The administration volume is 10 ml/kg for oral and 1 ml/kg for IV in male Wistar rats. Intravenous administration is via a formulation of 2% N—N Dimethyl acetamide/ethanol 10%/PEG400(30%)/water for IV injection (58%) and via Tween80/PEG400/sterile water in the case of oral administration. Urine and faeces collection is 0-4, 4-8, 8-24, 24-48, 48-72, 72-96, 96-120, 120-144 in the case of IV and for oral administration.
# Urine and faeces was processed and IS containing Acetonitrile is added to a defined urine/faeces and precipitated. After centrifugation, compound formula (B) and, where appropriate, known cleavage products of the compound formula (B) in the supernatant are determined quantitatively using a suitable LC/MS-MS method.
# The measured urine and faeces concentrations are used to calculate parameters of the test substance and of the active ingredient compound (A) liberated there from, such as AUC and Cmax.
# Acetonitrile containing IS is added to the study samples, calibration samples and QCs, and the protein is precipitated using acetonitrile. […]
# [2] = Permeability in caco2 system; type: in vitro ADME; details: human, Caco-2; caco2
# caco2 system = assay: Permeability in caco2 system; type: in vitro ADME; details: caco2, efflux >2
# [3] = Intravenous and oral pharmacokinetics in Wistar rats; type: in vivo; details: after i.v. administration, first measurement point
# Method: On the day before administration of the substance, a catheter for obtaining blood is implanted in the jugular vein of the experimental animals (male Wistar rats, body weight 200-250 g) under Isofluran® anesthesia.
# Blood samples (8-12 time points) are taken through the catheter sequentially over the course of 24 h after administration of the substance. The administration volume is 10 ml/kg for oral and 1 ml/kg for IV in male Wistar rats. Intravenous administration is via a formulation of 2% N—N Dimethyl acetamide/ethanol 10%/PEG400(30%)/water for IV injection (58%) and via Tween80/PEG400/sterile water in the case of oral administration. […]
# Plasma is obtained by centrifuging the samples in heparinized tubes. […] After centrifugation, compound formula (B) and, where appropriate, known cleavage products of the compound formula (B) in the supernatant are determined quantitatively using a suitable LC/MS-MS method.
# The measured plasma concentrations are used to calculate pharmacokinetic parameters of the test substance and of the active ingredient compound (A) liberated there from, such as AUC, Cmax, T½ (half-life) and CL (clearance). […]
# The plasma concentration/time plots determined are used to calculate the pharmacokinetic parameters such as AUC, Cmax, MRT (mean residence time), t½ (half life) and CL (clearance) employing the validated pharmacokinetic calculation programs. […]
structure (smiles),measurement,setting,value
"O=CN(C[C@H]1CN(c2ccc(N3CCOCC3=O)cc2)C(=O)O1)C(=O)c1ccc(Cl)s1 [compound formula (B), 5-chloro-N-formyl-N-({(5S)-2-oxo-3-[4-(3-oxomorpholin-4-yl)phenyl]-1,3-oxazolidin-5-yl}methyl)thiophene-2-carboxamide]",Detectability of unchanged test substance in urine and faeces,[1],no longer detectable
same,Papp A→B,[2],17.4 ×10⁻⁶ cm/s
same,Interpretation: Pgp substrate,caco2 system,observed to be a Pgp substrate.
same,Detectability of unchanged test substance in plasma,[3],no longer detectable
